Values of other authors, collected in US20250345348A1, “AMPK ACTIVATOR (CBDA) AND SGLT2 INHIBITOR FOR METABOLIC HEALTH” (SOCIETE DES PRODUITS NESTLE S.A., priority 2022, published 2025).
Like-named read-outs stand apart in the source and are kept apart here.

For `O=C(CCc1ccc(O)cc1)c1c(O)cc(O)cc1O[C@@H]1O[C@H](CO)[C@@H](O)[C@H](O)[C@H]1O` [phlorizin, 1-(2,4-Dihydroxy-6-{[(2S,3R,4S,5S,6R)-3,4,5-trihydroxy-6-(hydroxymethyl)oxan-2-yl]oxy}phenyl)-3-(4-hydroxyphenyl)propan-1-one], the solubility (in ethanol and hot water) is listed as “soluble”, the solubility (in ether and cold water) is listed as “poorly soluble” and the “stability in aqueous solutions” value (prolonged exposure to aqueous solutions) is listed as “hydrolyzes to phloretin and glucose”.
